Assay results as given in PubChem BioAssay AID1963862 (Molecular Pharmacology Branch, DTP, NCI, 2024).

Test system: KRAS patient-derived spheroids with HUVEC/MSC, viability
Test: Anticancer human tumor 941728-121-R-J1-PDC patient-derived lung adenocarcinoma cell line growth inhibition [KRAS2]
Conditions: for IC50: curve of first compound; for viability, T/C: stronger effect = lower value
Excerpt: Multicellular complex tumor spheroid response to RAS pathway inhibitors in combination with a targeted agents in patient-derived cell lines with oncogenic KRAS variants from multiple cancer types
A high-throughput screen of multi-cell type tumor spheroids was designed to identify active combinations of targeted small molecules and KRAS pathway inhibitors. Complex spheroids include a stromal component modeled by human endothelial cells (HUVEC) and fibroblasts modeled by human mesenchymal stem cells (MSCs). The concentration ranges selected for each drug and investigational agent were based upon clinically achievable concentrations if the clinical Cmax of the agent was known.
Compounds. The drugs and investigational agents: BI-3406 (NSC825286), BAY-293 (NSC824723), batoprotafib (TNO155; NSC825523), sotorasib (AMG 510; NSC818433), MRTX1257 (NSC819558), elimusertib (BAY 1895344; NSC800525), molibresib (GSK525762; NSC774829), temuterkib (LY3214996; NSC803410), venetoclax (NSC766270), alisertib (NSC759677), olaparib (NSC753686), talazoparib (NSC767125), erdafitinib (NSC781556), ipatasertib (NSC767898), cabozantinib (NSC761068), nintedanib (NSC756659), abemaciclib (NSC768073), docetaxel (NSC628503), trametinib (NSC758246), and sapanisertib (NSC764658) were obtained from the National Cancer Institute (NCI) Developmental Therapeutics Program Chemical Repository. The FDA-approved anticancer drug set is available from the Developmental Therapeutics Program. […] The stock solutions were prepared in dimethyl sulfoxide (DMSO, Sigma-Aldrich, St. Louis, MO, cat. D2650) at 800-fold the tested concentration and stored at -70 degrees C prior to their use. All drugs and investigational agents were tested over a range starting from a high concentration at or near the clinical Cmax and decreasing in half-log increments. If the clinical Cmax for an agent had not been determined, the highest concentration tested was 10 microM.
Cell Culture. All cells were maintained in an incubator at 37 degrees C and 5% CO2 with 95% humidity. The PDC lines were cultured according to standard operating procedures established by the NCI PDMR (https://pdmr.cancer.gov/sops/default.htm). Briefly, all PDCs were thawed and cultured in Matrigel-coated flasks prepared with a working solution of 1X Ham's F-12 nutrient mix, without supplementation (Invitrogen, Waltham, MA, cat. 11765054), 100 U/mL penicillin-streptomycin (Invitrogen, cat. 15140122), and 2.5% Matrigel (Corning Inc., Corning, NY, cat. 354248) for the first three passages. All PDCs were cultured in complete DMEM/F-12 media containing advanced DMEM/F-12 (Invitrogen, cat. 12634028), 4.9% defined fetal bovine serum, heat inactivated (HyClone Laboratories Inc., Logan, UT, cat. SH30070.03HI), 389 ng/mL hydrocortisone (Sigma-Aldrich, cat. H4001), 9.7 ng/mL human EGF recombinant protein (Invitrogen, cat. PHG0313), 23.4 microg/mL adenine (Sigma-Aldrich, cat. A2786), 97.3 U/mL penicillin-streptomycin (Invitrogen, cat. 15140122), 1.9 mM L-glutamine (Invitrogen, cat. 25030081), and 9.7 microM Y-27632 dihydrochloride (Tocris Bioscience, Bristol, United Kingdom, cat. 1254). The PDCs were cultured in complete DMEM/F12 media without 9.7 microM Y-27632 dihydrochloride for at least two passages prior to the screen. The established cell line HOP-62 was cultured in RPMI 1640 medium, HEPES (Invitrogen, cat. 22400105) with 10% defined fetal bovine serum (HyClone Laboratories Inc., cat. SH30070.03) and 2 mM L-glutamine (Invitrogen, cat. 25030081). The pooled donor HUVEC were cultured in endothelial cell growth medium 2 (PromoCell, Heidelberg, Germany, cat. C-22011) and the hMSC were cultured in mesenchymal stem cell growth medium 2 (PromoCell, cat. C-28009). For all experiments, HUVEC and hMSC were used at passages </=5, while the malignant cell lines were used at passages </=15. […]

[1] = second compound 0.1 µM, first compound 0.0316 µM
[2] = second compound 0.1 µM, first compound 0.1 µM
[3] = second compound 0.1 µM, first compound 0.316 µM
[4] = second compound 0.1 µM, first compound 1 µM
[5] = second compound 0.1 µM, first compound 3.16 µM
[6] = second compound 0.316 µM, first compound 0.0316 µM
[7] = second compound 0.316 µM, first compound 0.1 µM
[8] = second compound 0.316 µM, first compound 0.316 µM
[9] = second compound 0.316 µM, first compound 1 µM
[10] = second compound 0.316 µM, first compound 3.16 µM
[11] = second compound 1 µM, first compound 0.0316 µM
[12] = second compound 1 µM, first compound 0.1 µM
[13] = second compound 1 µM, first compound 0.316 µM
[14] = second compound 1 µM, first compound 1 µM
[15] = second compound 1 µM, first compound 3.16 µM
[16] = second compound 3.16 µM, first compound 0.0316 µM
[17] = second compound 3.16 µM, first compound 0.1 µM
[18] = second compound 3.16 µM, first compound 0.316 µM
[19] = second compound 3.16 µM, first compound 1 µM
[20] = second compound 3.16 µM, first compound 3.16 µM
[21] = second compound 10 µM, first compound 0.0316 µM
[22] = second compound 10 µM, first compound 0.1 µM
[23] = second compound 10 µM, first compound 0.316 µM
[24] = second compound 10 µM, first compound 1 µM
[25] = second compound 10 µM, first compound 3.16 µM
[26] = second compound 0.1 µM, first compound 10 µM
[27] = second compound 0.316 µM, first compound 10 µM
[28] = second compound 1 µM, first compound 10 µM
[29] = second compound 3.16 µM, first compound 10 µM
[30] = second compound 10 µM, first compound 10 µM
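Also: spheroids exposed to agents for seven days before readout.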

| Structure (SMILES) | IC50 (second compound 0.1 µM) | IC50 (second compound 0.316 µM) | IC50 (second compound 1 µM) | IC50 (second compound 3.16 µM) | IC50 (second compound 10 µM) | viability, T/C [1] | viability, T/C [2] | viability, T/C [3] | viability, T/C [4] | viability, T/C [5] | viability, T/C [6] | viability, T/C [7] | viability, T/C [8] | viability, T/C [9] | viability, T/C [10] | viability, T/C [11] | viability, T/C [12] | viability, T/C [13] | viability, T/C [14] | viability, T/C [15] | further results |
| --- | --- | --- | --- | --- | --- | --- | --- | --- | --- | --- | --- | --- | --- | --- | --- | --- | --- | --- | --- | --- | --- |
| CC1COCCN1c1cc(-c2ccnn2C)c2ccnc(-c3ccn[nH]3)c2n1 (stereo not given) + C=CC(=O)N1CCN(c2nc(=O)n(-c3c(C)ccnc3C(C)C)c3nc(-c4c(O)cccc4F)c(F)cc23)C(C)C1 | < 10 nM | < 10 nM | < 10 nM | < 10 nM | < 10 nM | 20.3% | 18.5% | 16.3% | 13.1% | 10.7% | 23.2% | 19.2% | 19.1% | 13.5% | 10.5% | 24.6% | 21% | 17.5% | 14.1% | 14% | viability, T/C (second compound 0.1 µM, first compound 0.01 µM): 23.9%; viability, T/C (second compound 0.316 µM, first compound 0.01 µM): 23.6%; viability, T/C (second compound 1 µM, first compound 0.01 µM): 25.1%; viability, T/C (second compound 3.16 µM, first compound 0.01 µM): 26.2%; viability, T/C [16]: 27.1%; viability, T/C [17]: 24.2%; viability, T/C [18]: 21.2%; viability, T/C [19]: 20.1%; viability, T/C [20]: 16.5%; viability, T/C (second compound 10 µM, first compound 0.01 µM): 33.3%; viability, T/C [21]: 34.8%; viability, T/C [22]: 31.9%; viability, T/C [23]: 28.4%; viability, T/C [24]: 25.4%; viability, T/C [25]: 30.5% |
| CC1OCC2(CCN(c3cnc(Sc4ccnc(N)c4Cl)c(N)n3)CC2)C1N (stereo not given) + C=CC(=O)N1CCN(c2nc(=O)n(-c3c(C)ccnc3C(C)C)c3nc(-c4c(O)cccc4F)c(F)cc23)C(C)C1 | < 31.6 nM | < 31.6 nM | < 31.6 nM | < 31.6 nM | < 31.6 nM | 21.9% | 20.6% | 17.3% | 16.8% | 16.6% | 26.5% | 23% | 20.1% | 17.1% | 15.1% | 31.1% | 24.7% | 20.4% | 18.9% | 19.6% | viability, T/C [26]: 12.9%; viability, T/C [27]: 12.4%; viability, T/C [28]: 17.8%; viability, T/C [16]: 29%; viability, T/C [17]: 25.4%; viability, T/C [18]: 25.6%; viability, T/C [19]: 21.5%; viability, T/C [20]: 22.1%; viability, T/C [29]: 18.5%; viability, T/C [21]: 34.1%; viability, T/C [22]: 35%; viability, T/C [23]: 31%; viability, T/C [24]: 26.8%; viability, T/C [25]: 26.7%; viability, T/C [30]: 28.5% |
| CCNC(=O)CC1N=C(c2ccc(Cl)cc2)c2cc(OC)ccc2-n2c(C)nnc21 (stereo not given) + C=CC(=O)N1CCN(c2nc(=O)n(-c3c(C)ccnc3C(C)C)c3nc(-c4c(O)cccc4F)c(F)cc23)C(C)C1 | < 31.6 nM | < 31.6 nM | < 31.6 nM | < 31.6 nM | < 31.6 nM | 25.4% | 27% | 21.2% | 14.3% | 11.7% | 27.4% | 23.8% | 20.4% | 14.7% | 13% | 28.9% | 28.7% | 21.7% | 16.2% | 14% | viability, T/C [26]: 10.8%; viability, T/C [27]: 10.3%; viability, T/C [28]: 10.7%; viability, T/C [16]: 30.4%; viability, T/C [17]: 28%; viability, T/C [18]: 22.5%; viability, T/C [19]: 18.3%; viability, T/C [20]: 11.6%; viability, T/C [29]: 8.77%; viability, T/C [21]: 34.1%; viability, T/C [22]: 31.6%; viability, T/C [23]: 23.4%; viability, T/C [24]: 15.1%; viability, T/C [25]: 11%; viability, T/C [30]: 8.28% |
| Cn1nccc1Nc1nccc(-c2cc3c(s2)C(C)(C)N(CCN2CCOCC2)C3=O)n1 + C=CC(=O)N1CCN(c2nc(=O)n(-c3c(C)ccnc3C(C)C)c3nc(-c4c(O)cccc4F)c(F)cc23)C(C)C1 | < 31.6 nM | < 31.6 nM | < 31.6 nM | < 31.6 nM | < 31.6 nM | 23.9% | 23.4% | 19% | 19.6% | 17.7% | 25.4% | 24.4% | 20.2% | 18.9% | 16.8% | 26.1% | 27.4% | 21.1% | 19.9% | 17.8% | viability, T/C [26]: 20.7%; viability, T/C [27]: 21.4%; viability, T/C [28]: 29.4%; viability, T/C [16]: 30.6%; viability, T/C [17]: 31.4%; viability, T/C [18]: 24.9%; viability, T/C [19]: 23.6%; viability, T/C [20]: 22.9%; viability, T/C [29]: 32.3%; viability, T/C [21]: 36.4%; viability, T/C [22]: 38%; viability, T/C [23]: 30.7%; viability, T/C [24]: 30%; viability, T/C [25]: 34.2%; viability, T/C [30]: 57.5% |
